A word on the surface tension liquid-gas: it is the force per length acting along the surface. The mass density is the mass of a sample divided by its volume.

SMILES strings stand for the structures. ± gives the expanded uncertainty stated by the source.

For the data set the following is noted: for surface tension liquid-gas: Maximal bubble pressure; for mass density: 100 kPa, Liquid, Vibrating tube method.

For `CCn1cc[n+](CCOC)c1.O=S(=O)([N-]S(=O)(=O)C(F)(F)F)C(F)(F)F`, the surface tension liquid-gas came out at 36 ± 0.4 mN/m (298.15 K); 35.8 ± 0.4 mN/m (303.15 K); 35.5 ± 0.4 mN/m (308.15 K); 35.2 ± 0.4 mN/m (313.15 K); 35 ± 0.4 mN/m (318.15 K); 34.7 ± 0.4 mN/m (323.15 K). The surface tension liquid-gas is reported as 34.4 ± 0.4 mN/m (328.15 K), 34.1 ± 0.4 mN/m (333.15 K) and 33.9 ± 0.4 mN/m (338.15 K). The mass density by setting is: (298.15 K) 1463.13 ± 2.4 kg/m3; (303.15 K) 1458.11 ± 2.4 kg/m3; (308.15 K) 1453.11 ± 2.4 kg/m3; (313.15 K) 1448.12 ± 2.4 kg/m3; (318.15 K) 1443.16 ± 2.4 kg/m3; (323.15 K) 1438.21 ± 2.4 kg/m3. The mass density reads like this: (328.15 K) 1433.29 ± 2.4 kg/m3; (333.15 K) 1428.39 ± 2.4 kg/m3; (338.15 K) 1423.51 ± 2.4 kg/m3.

Regarding `CCn1cc[n+](CCOC)c1.O=S(=O)([O-])C(F)(F)F`, the surface tension liquid-gas amounted to 38 ± 0.4 mN/m (298.15 K); 37.7 ± 0.4 mN/m (303.15 K); 37.4 ± 0.4 mN/m (308.15 K); 37.1 ± 0.4 mN/m (313.15 K); 36.9 ± 0.4 mN/m (318.15 K); 36.5 ± 0.4 mN/m (323.15 K). Besides, the surface tension liquid-gas is 36.3 ± 0.4 mN/m (328.15 K), 36.1 ± 0.4 mN/m (333.15 K) and 35.8 ± 0.4 mN/m (338.15 K). Also, the mass density runs as follows: (298.15 K) 1355.89 ± 4.6 kg/m3; (303.15 K) 1351.61 ± 4.6 kg/m3; (308.15 K) 1347.35 ± 4.6 kg/m3; (313.15 K) 1343.11 ± 4.6 kg/m3; (318.15 K) 1338.88 ± 4.6 kg/m3; (323.15 K) 1334.67 ± 4.6 kg/m3. In addition, the mass density reads like this: (328.15 K) 1330.48 ± 4.6 kg/m3; (333.15 K) 1326.3 ± 4.6 kg/m3; (338.15 K) 1322.12 ± 4.6 kg/m3.

`CC(=O)[O-].CCn1cc[n+](CCOC)c1` [1-ethyl-3-(2-methoxyethyl)imidazolium acetate]: the surface tension liquid-gas by setting is: (298.15 K) 46 ± 0.5 mN/m; (303.15 K) 45.7 ± 0.5 mN/m; (308.15 K) 45.4 ± 0.5 mN/m; (313.15 K) 45.1 ± 0.5 mN/m; (318.15 K) 44.8 ± 0.5 mN/m; (323.15 K) 44.5 ± 0.5 mN/m. In addition, the surface tension liquid-gas runs as follows: (328.15 K) 44.3 ± 0.5 mN/m; (333.15 K) 44.1 ± 0.5 mN/m; (338.15 K) 43.9 ± 0.5 mN/m. Besides, the mass density by setting is: (298.15 K) 1192.38 ± 4.6 kg/m3; (303.15 K) 1189.07 ± 4.6 kg/m3; (308.15 K) 1185.74 ± 4.6 kg/m3; (313.15 K) 1182.43 ± 4.6 kg/m3; (318.15 K) 1179.14 ± 4.6 kg/m3; (323.15 K) 1175.86 ± 4.6 kg/m3. Moreover, the mass density reads like this: (328.15 K) 1172.58 ± 4.6 kg/m3; (333.15 K) 1169.35 ± 4.6 kg/m3; (338.15 K) 1166.13 ± 4.6 kg/m3.

Turning to `CCn1cc[n+](CCOC)c1.N#C[N-]C#N` [1-ethyl-3-(2-methoxyethyl)imidazolium dicyanamide], the surface tension liquid-gas by setting is: (298.15 K) 44.6 ± 0.5 mN/m; (303.15 K) 44.3 ± 0.5 mN/m; (308.15 K) 44 ± 0.5 mN/m; (313.15 K) 43.7 ± 0.5 mN/m; (318.15 K) 43.4 ± 0.5 mN/m; (323.15 K) 43.1 ± 0.5 mN/m. In addition, the surface tension liquid-gas is listed as 42.9 ± 0.5 mN/m (328.15 K), 42.7 ± 0.4 mN/m (333.15 K) and 42.4 ± 0.4 mN/m (338.15 K). The mass density reads like this: (298.15 K) 1113.6 ± 4.6 kg/m3; (303.15 K) 1110.21 ± 4.6 kg/m3; (308.15 K) 1106.83 ± 4.6 kg/m3; (313.15 K) 1103.48 ± 4.6 kg/m3; (318.15 K) 1100.15 ± 4.6 kg/m3; (323.15 K) 1096.84 ± 4.6 kg/m3. Further, the mass density is, setting by setting: (328.15 K) 1093.53 ± 4.6 kg/m3; (333.15 K) 1090.26 ± 4.6 kg/m3; (338.15 K) 1087 ± 4.6 kg/m3.

For `CCn1cc[n+](CCOC)c1.N#C[S-]` [1-ethyl-3-(2-methoxyethyl)imidazolium thiocyanate], the surface tension liquid-gas (298.15 K) is reported as 49 ± 0.5 mN/m; the surface tension liquid-gas (303.15 K) is listed as 48.7 ± 0.5 mN/m; the surface tension liquid-gas (308.15 K) was 48.4 ± 0.5 mN/m; the surface tension liquid-gas (313.15 K) was 48 ± 0.5 mN/m; the surface tension liquid-gas (318.15 K) is 47.7 ± 0.5 mN/m; the surface tension liquid-gas (323.15 K) was 47.5 ± 0.5 mN/m. The surface tension liquid-gas by setting is: (328.15 K) 47.3 ± 0.5 mN/m; (333.15 K) 47.1 ± 0.5 mN/m; (338.15 K) 46.7 ± 0.5 mN/m. Also, the mass density runs as follows: (298.15 K) 1122.11 ± 4.6 kg/m3; (303.15 K) 1118.89 ± 4.6 kg/m3; (308.15 K) 1115.69 ± 4.6 kg/m3; (313.15 K) 1112.52 ± 4.6 kg/m3; (318.15 K) 1109.37 ± 4.6 kg/m3; (323.15 K) 1106.23 ± 4.6 kg/m3. For the same compound, the mass density turned out to be 1103.12 ± 4.6 kg/m3 (328.15 K), 1100.01 ± 4.6 kg/m3 (333.15 K) and 1096.92 ± 4.6 kg/m3 (338.15 K).
